Experimental data published in patent US20260199309A1, “COMPOUNDS FOR THE TREATMENT OF CENTRA NERVOUS SYSTEM DISORDERS” (Autifony Therapeutics Limited, priority 2022, published 2026).

Experiments:
[1] = target: T1, CYP2C8 (Homo sapiens, UniProt P10632); assay: CYP450 inhibition, Vivid Baculosomes (2C8/DBOMF); assay type: in vitro ADME; details: recombinant human CYP450 Baculosomes, substrate DBOMF; top concentration 5.00E-05
T1 construct: purchased
T1 sequence (P10632 1-490): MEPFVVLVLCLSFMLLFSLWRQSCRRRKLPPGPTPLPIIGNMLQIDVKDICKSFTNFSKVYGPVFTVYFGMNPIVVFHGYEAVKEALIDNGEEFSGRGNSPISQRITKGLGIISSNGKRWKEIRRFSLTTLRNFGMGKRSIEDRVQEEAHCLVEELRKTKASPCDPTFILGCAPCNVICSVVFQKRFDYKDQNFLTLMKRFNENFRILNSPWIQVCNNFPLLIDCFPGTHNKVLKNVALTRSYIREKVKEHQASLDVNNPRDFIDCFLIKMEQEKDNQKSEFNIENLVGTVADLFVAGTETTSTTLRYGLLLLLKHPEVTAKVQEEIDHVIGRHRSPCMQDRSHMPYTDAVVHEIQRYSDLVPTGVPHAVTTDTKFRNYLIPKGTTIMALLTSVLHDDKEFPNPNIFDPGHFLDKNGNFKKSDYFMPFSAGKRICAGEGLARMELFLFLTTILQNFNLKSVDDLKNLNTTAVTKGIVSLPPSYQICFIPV
Source text: The method uses recombinant human CYP450 to metabolize pro-fluorescent probe substrates to fluorescent products. IC50 values for the effect of test compounds on the metabolism of these probe substrates provides a measure of the potency of inhibition of individual CYP450 isoforms.
The described assays measure in vitro inhibitory effects (pIC50) of compounds at the human P450 isoforms (1A2, 2C8, 2C9, 2C19, 2D6, 3A4) expressed in recombinant microsomes. Pro-fluorescent probe substrates are metabolized to fluorescent products by the enzymes.
Fluorescence is measured in kinetic mode (1 read/min for 10 min) and the fluorescence rate is calculated. Data are normalized to controls: DMSO represents 0% effect (i.e. no inhibition), while 10 μM Miconazole is set to 100% effect (i.e. complete inhibition).
Inhibition of the fluorescent signal determined by P450 […] indicates antagonist activity of the compound and allows for the calculation of the compound plC50.
CRCs of compounds are run on two different test occasions (n=2) by preparing serial dilutions from the same compound stock solution. Details of the solutions are outlined in Table 6:
Test compound serial dilutions 1 to 3 were performed from a 10 mM stock solution in DMSO by Biomek FX to generate 10 point CRC. 100% DMSO was used for assay low controls. 10 mM (2 mM for 3A4/DBOMF, 2C8/DBOMF assay only) miconazole solution in DMSO was used as assay high controls. The final concentrations of the 10 point CRCs of test compounds in the assay plate were 5.00E-05; 1.67E-05; 5.56E-06; 1.85E-06; 6.17E-07; 2.06E-07; 6.86E-08; 2.29E-08; 7.62E-09 and 2.54E-09, respectively.
The CYP3A4 and CYP2C8 were assayed using the Vivid CYP3A4 Baculosomes, CYP2C8 Baculosomes and Vivid DBOMF Substrate. […]
10 μl/well from compound plate was added and incubated for 10 min at 37° C. on a plate shaker. […] The plate was transferred into the fluorescent plate reader (EnVision, Wallac) immediately within 2 min and monitor fluorescence every minute for 10 (Excitation 485, Emission 535 and Mirror 505 FITC). […]
The inhibition effect was expressed as percentage. […]

[2] = target: T2, human Kv3.1 channels (hKv3.1) (Homo sapiens, UniProt P48547); assay: Kv3.1 channel modulation, IonWorks Quattro planar array electrophysiology; assay type: cell-based; details: HEK-293 cells expressing human Kv3.1; for EC50: read-out: Kv3.1 pEC50 (converted); for Kv3.1 max R %: normalised to maximum effect of 50 microM reference compound
T2 construct: expressed in transfected cells
T2 sequence (P48547 1-511): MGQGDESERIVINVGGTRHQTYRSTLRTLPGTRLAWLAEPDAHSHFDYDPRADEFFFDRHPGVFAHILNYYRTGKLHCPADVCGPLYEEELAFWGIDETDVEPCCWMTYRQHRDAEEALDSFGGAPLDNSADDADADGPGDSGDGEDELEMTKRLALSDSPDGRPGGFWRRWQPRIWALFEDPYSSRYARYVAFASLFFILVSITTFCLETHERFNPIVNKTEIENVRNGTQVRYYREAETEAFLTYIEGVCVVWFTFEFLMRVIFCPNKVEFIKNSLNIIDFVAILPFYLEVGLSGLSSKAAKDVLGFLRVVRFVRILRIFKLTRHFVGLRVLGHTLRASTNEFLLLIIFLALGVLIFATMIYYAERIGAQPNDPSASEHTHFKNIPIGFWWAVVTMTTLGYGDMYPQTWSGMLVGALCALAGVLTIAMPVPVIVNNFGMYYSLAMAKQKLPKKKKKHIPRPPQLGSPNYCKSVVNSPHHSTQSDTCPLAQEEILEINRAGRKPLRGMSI

[3] = currents at −15 mV voltage step, normalised to 50 microM reference compound and vehicle

Structure (SMILES) | IC50 [1] | Kv3.1 pEC50 [2, 3] | EC50 [2, 3] | Kv3.1 max R % [2]
Cc1ccc(Oc2ccc(N3C(=O)NC(C)(C)C3=O)c(N)n2)c2c1OCC21CC1 [Example 1, 3-[2-amino-6-(7-methylspiro[2H-benzofuran-3,1′-cyclopropane]-4-yl)oxy-3-pyridyl]-5,5-dimethyl-imidazolidine-2,4-dione] | 8900 nM | 6.6 | 251 nM | 183%
CC1(C)NC(=O)N(c2ccc(Oc3cccc(OC(F)(F)F)c3)nc2N)C1=O [Example 9, 3-[2-amino-6-[3-(trifluoromethoxy)phenoxy]-3-pyridyl]-5,5-dimethyl-imidazolidine-2,4-dione] | > 50000 nM | – | 2510 nM | 118%
COc1nc(Oc2ccc(C)c3c2C2(CC2)CO3)ccc1N1C(=O)NC(C)(C)C1=O [Reference Example 2, reference compound] | 2300 nM | – | 1000 nM | –
